# Assay results from patent US9580416B2, “Inhibitors of Bruton's tyrosine kinase” (PHARMACYCLICS LLC, priority 2014, dated 2017).
# Columns and labels:
# Type in all cases: biochemical
# JAK3 = target: T1, JAK3 (Homo sapiens, UniProt P52333); experiment: Inhibition of a panel of kinases, in vitro HotSpot kinase assay: JAK3
# T1 sequence (P52333 1-1124): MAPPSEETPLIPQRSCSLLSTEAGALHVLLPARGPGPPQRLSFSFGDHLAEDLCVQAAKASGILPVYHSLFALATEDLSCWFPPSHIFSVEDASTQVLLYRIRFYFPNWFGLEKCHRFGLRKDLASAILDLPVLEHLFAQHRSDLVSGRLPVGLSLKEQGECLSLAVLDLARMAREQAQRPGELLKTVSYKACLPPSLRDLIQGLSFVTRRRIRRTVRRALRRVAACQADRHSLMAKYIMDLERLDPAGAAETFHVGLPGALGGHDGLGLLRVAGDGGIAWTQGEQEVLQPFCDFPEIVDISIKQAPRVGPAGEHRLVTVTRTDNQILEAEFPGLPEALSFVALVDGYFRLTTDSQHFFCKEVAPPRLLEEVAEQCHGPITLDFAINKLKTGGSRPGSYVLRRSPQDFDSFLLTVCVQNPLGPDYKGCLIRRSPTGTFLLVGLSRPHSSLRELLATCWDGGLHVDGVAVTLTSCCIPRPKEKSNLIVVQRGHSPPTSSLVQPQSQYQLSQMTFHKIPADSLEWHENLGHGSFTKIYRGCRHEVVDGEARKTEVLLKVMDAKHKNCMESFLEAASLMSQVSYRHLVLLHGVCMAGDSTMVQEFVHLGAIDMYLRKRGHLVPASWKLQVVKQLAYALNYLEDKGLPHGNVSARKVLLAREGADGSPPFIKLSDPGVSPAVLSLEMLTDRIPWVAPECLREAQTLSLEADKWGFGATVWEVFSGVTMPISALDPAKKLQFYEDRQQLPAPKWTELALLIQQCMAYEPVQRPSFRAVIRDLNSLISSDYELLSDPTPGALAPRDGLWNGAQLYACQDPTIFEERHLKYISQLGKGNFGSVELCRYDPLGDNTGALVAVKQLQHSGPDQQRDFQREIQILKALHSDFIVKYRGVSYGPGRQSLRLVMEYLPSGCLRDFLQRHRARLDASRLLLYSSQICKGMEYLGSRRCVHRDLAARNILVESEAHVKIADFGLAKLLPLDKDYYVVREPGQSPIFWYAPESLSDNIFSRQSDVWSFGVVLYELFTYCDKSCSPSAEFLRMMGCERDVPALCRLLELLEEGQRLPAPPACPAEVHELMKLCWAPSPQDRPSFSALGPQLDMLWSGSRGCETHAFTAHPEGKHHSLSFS
# Experimental: (§1) The degree of inhibition of a panel of kinases is determined using the in vitro HotSpot kinase assay (purified enzymes, ^33P-ATP, an appropriate substrate and 1 uM ATP).
# Lck = Lck (Homo sapiens, UniProt P06239); experiment: Lck kinase activity, TR-FRET assay; details: read-out: LCK (IC50)
# How it was run: (§2)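 Enzyme (Btk 0.5 nM; Lck 6 nM) reacted 1 h with inhibitor, ATP at Km and biotin-peptide substrate in pH 7.4 buffer, 10% DMSO. Phosphopeptide detected by Eu-p-Tyr100 antibody plus streptavidin-APC (665/615 nm). IC50 calculated from fitted Ki(app) via ATP/Km correction plus half total enzyme.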
# Btk = Btk (Homo sapiens, UniProt Q06187); experiment: Btk kinase activity, TR-FRET assay; details: read-out: Btk (IC50)
# How it was run: as §2
# EGFR = EGFR (Homo sapiens, UniProt P00533); experiment: Inhibition of a panel of kinases, in vitro HotSpot kinase assay: EGFR
# Experimental: as §1
# Lck, sequence (P06239 whole entry, species assumed): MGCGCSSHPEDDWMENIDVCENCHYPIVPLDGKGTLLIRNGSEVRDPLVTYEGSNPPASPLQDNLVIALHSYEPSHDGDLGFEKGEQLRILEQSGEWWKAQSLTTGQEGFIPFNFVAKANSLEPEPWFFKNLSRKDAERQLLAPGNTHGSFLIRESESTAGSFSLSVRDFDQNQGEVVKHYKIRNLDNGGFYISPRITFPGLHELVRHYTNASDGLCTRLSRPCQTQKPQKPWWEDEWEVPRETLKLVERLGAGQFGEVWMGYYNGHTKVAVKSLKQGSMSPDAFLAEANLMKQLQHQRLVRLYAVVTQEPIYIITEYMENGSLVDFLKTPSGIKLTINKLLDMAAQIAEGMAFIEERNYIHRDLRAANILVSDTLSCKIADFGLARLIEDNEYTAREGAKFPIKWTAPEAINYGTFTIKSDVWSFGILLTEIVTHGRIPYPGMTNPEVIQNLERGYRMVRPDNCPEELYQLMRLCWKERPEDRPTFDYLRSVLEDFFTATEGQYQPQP
# Btk, sequence (Q06187 whole entry): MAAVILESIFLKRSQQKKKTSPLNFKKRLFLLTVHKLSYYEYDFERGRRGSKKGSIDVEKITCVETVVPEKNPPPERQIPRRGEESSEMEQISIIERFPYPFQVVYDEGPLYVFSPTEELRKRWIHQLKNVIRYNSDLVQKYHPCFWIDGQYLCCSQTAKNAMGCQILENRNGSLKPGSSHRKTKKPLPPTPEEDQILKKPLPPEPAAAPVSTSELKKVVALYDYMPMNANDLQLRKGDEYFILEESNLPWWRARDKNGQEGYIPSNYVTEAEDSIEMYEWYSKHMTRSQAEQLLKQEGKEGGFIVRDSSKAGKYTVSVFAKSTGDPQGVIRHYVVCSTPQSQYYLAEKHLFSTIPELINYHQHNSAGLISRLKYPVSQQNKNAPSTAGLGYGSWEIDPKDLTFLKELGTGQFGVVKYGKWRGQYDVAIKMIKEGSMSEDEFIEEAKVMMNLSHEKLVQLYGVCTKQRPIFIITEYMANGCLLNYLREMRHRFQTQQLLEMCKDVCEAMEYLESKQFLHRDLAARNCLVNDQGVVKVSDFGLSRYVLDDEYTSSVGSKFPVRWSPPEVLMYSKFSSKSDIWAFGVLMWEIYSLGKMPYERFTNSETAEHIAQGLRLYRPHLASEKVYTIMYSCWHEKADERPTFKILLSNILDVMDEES
# EGFR, sequence (P00533 25-1210): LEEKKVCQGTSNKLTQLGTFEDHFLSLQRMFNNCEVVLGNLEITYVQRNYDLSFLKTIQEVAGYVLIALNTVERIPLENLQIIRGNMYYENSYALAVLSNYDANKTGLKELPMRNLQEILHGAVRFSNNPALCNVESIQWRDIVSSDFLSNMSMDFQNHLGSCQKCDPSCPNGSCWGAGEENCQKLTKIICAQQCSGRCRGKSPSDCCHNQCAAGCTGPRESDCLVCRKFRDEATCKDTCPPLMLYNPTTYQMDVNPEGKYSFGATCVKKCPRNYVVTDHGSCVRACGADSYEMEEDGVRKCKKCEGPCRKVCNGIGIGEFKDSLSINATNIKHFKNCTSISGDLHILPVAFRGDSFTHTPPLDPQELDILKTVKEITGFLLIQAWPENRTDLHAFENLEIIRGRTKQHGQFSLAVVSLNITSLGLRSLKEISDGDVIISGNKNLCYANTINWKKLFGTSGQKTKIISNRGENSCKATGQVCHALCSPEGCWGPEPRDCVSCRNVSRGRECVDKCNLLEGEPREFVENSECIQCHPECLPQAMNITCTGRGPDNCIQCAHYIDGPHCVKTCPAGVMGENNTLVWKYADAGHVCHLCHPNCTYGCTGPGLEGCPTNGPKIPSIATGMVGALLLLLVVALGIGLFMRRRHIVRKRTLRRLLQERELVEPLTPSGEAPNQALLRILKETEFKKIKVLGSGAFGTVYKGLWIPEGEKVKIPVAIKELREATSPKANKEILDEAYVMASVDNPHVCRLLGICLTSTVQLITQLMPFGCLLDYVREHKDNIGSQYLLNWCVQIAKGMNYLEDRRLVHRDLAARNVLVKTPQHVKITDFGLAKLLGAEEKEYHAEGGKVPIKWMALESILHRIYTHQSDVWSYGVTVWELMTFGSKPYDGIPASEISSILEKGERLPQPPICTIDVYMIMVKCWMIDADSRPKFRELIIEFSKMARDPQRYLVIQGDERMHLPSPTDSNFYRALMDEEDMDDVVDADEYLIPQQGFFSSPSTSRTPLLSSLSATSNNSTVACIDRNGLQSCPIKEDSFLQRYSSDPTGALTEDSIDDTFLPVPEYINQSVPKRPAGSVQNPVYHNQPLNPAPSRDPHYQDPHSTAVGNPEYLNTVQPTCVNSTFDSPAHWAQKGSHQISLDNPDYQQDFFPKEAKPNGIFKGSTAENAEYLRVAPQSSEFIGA
IC50 (JAK3),IC50 (Lck),IC50 (Btk),IC50 (EGFR),SMILES
> 10 µM,0.1 to 1 µM,< 0.1 µM,1 to 10 µM,"Cc1ccnc(NC(=O)c2ccc(Oc3ccnc4[nH]nc(N[C@@H]5CCN(C#N)C5)c34)cc2)c1 [compound 275, (R)-4-(3-(1-cyanopyrrolidin-3-ylamino)-1H-pyrazolo[3,4-b]pyridin-4-yloxy)-N-(4-methylpyridin-2-yl)benzamide]"
> 10 µM,0.1 to 1 µM,< 0.1 µM,> 10 µM,"Cc1ccnc(NC(=O)c2ccc(Oc3ccnc4[nH]nc(N[C@@H]5CCCN(C(=O)[C@@H]6CCOC6)C5)c34)cc2)c1 [compound 115, N-(4-methylpyridin-2-yl)-4-[(3-{[(3R)-1-[(3R)-oxolane-3-carbonyl]piperidin-3-yl]amino}-1H-pyrazolo[3,4-b]pyridin-4-yl)oxy]benzamide]"
0.1 to 1 µM,0.1 to 1 µM,< 0.1 µM,> 10 µM,CCNC(=O)N1CCC[C@@H](Nc2n[nH]c3nccc(Oc4ccc(C(=O)Nc5nc6ccccc6s5)cc4)c23)C1 [compound 176]
> 10 µM,0.1 to 1 µM,< 0.1 µM,1 to 10 µM,"Cc1ccnc(NC(=O)c2ccc(Oc3ccnc4[nH]nc(N[C@@H]5CCCN(C(=O)C6CCNCC6)C5)c34)cc2)c1 [compound 96, N-(4-methylpyridin-2-yl)-4-[(3-{[(3R)-1-(piperidin-4-carbonyl)piperidin-3-yl]amino}-1H-pyrazolo[3,4-b]pyridin-4-yl)oxy]benzamide]"
> 10 µM,> 10 µM,0.1 to 1 µM,> 10 µM,Cc1cc(NC(=O)c2ccc(Oc3ccnc4[nH]nc(N[C@@H]5CCCN(C(=O)/C=C/CN(C)C6CC6)C5)c34)cc2)nn1C [compound 165]
< 0.1 µM,0.1 to 1 µM,< 0.1 µM,0.1 to 1 µM,C=CC(=O)N1CCC[C@@H](Nc2n[nH]c3nccc(Oc4ccc(C(=O)Nc5ncc(C)s5)cc4)c23)C1 [compound 140]
> 10 µM,1 to 10 µM,< 0.1 µM,> 10 µM,"CCNC(=O)N1CCC[C@@H](Nc2n[nH]c3nccc(Oc4ccc(C(=O)Nc5cc(C)ccn5)cc4)c23)C1 [compound 227, (R)-N-ethyl-3-(4-(4-(4-methylpyridin-2-ylcarbamoyl)phenoxy)-1H-pyrazolo[3,4-b]pyridin-3-ylamino)piperidine-1-carboxamide]"
0.1 to 1 µM,< 0.1 µM,< 0.1 µM,< 0.1 µM,"C=CC(=O)N1CC[C@@H](Nc2n[nH]c3nccc(Oc4ccc(Oc5ccccc5)cc4)c23)C1 [compound 4, 1-[(3R)-3-{[4-(4-phenoxyphenoxy)-1H-pyrazolo[3,4-b]pyridin-3-yl]amino}pyrrolidin-1-yl]prop-2-en-1-one]"
> 10 µM,< 0.1 µM,0.1 to 1 µM,> 10 µM,"Cc1cc(NC(=O)c2cccc(Oc3ccnc4[nH]nc(N[C@H]5CCN(C(=O)c6ccc(F)cc6)C5)c34)c2)ccc1C(C)C [compound 128, 3-[(3-{[(3S)-1-(4-fluorobenzoyl)pyrrolidin-3-yl]amino}-1H-pyrazolo[3,4-b]pyridin-4-yl)oxy]-N-[3-methyl-4-(propan-2-yl)phenyl]benzamide]"
> 10 µM,0.1 to 1 µM,< 0.1 µM,1 to 10 µM,"CCNC(=O)N[C@@H]1CCCN(c2n[nH]c3nccc(Oc4ccc(C(=O)Nc5cc(C(F)(F)F)ccn5)cc4)c23)C1 [compound 228, 4-({3-[(3R)-3-[(ethylcarbamoyl)amino]piperidin-1-yl]-1H-pyrazolo[3,4-b]pyridin-4-yl}oxy)-N-[4-(trifluoromethyl)pyridin-2-yl]benzamide]"
> 10 µM,0.1 to 1 µM,< 0.1 µM,> 10 µM,"CC#CC(=O)N1CCC[C@@H](Nc2n[nH]c3nccc(Oc4ccc(C(=O)Nc5cc(C)ccn5)cc4)c23)C1 [compound 280, (R)-4-(3-(1-but-2-ynoylpiperidin-3-ylamino)-1H-pyrazolo[3,4-b]pyridin-4-yloxy)-N-(4-methylpyridin-2-yl)benzamide]"
1 to 10 µM,0.1 to 1 µM,< 0.1 µM,1 to 10 µM,CN(C/C=C/C(=O)N1CCC[C@@H](Nc2n[nH]c3nccc(Oc4ccc(C(=O)Nc5nc6ccccc6s5)cc4)c23)C1)C1CC1 [compound 167]
> 10 µM,> 10 µM,1 to 10 µM,> 10 µM,"Cc1cccc2nc(-c3ccc(Oc4ccnc5[nH]nc(N[C@@H]6CCCN(C(=O)C7CC7)C6)c45)cc3)oc12 [compound 220, (3R)-1-cyclopropanecarbonyl-N-{4-[4-(7-methyl-1,3-benzoxazol-2-yl)phenoxy]-1H-pyrazolo[3,4-b]pyridin-3-yl}piperidin-3-amine]"
< 0.1 µM,> 10 µM,< 0.1 µM,> 10 µM,C=CC(=O)N1CCC[C@@H](Nc2n[nH]c3nccc(Oc4ccc(C(=O)Nc5nc6c(s5)CCN(C)C6)cc4)c23)C1 [compound 145]
> 10 µM,0.1 to 1 µM,< 0.1 µM,1 to 10 µM,"Cc1ccnc(NC(=O)c2ccc(Oc3ccnc4[nH]nc(N[C@@H]5CCCN(C(=O)C6CC6)C5)c34)cc2)c1 [compound 100, 4-[(3-{[(3R)-1-cyclopropanecarbonylpiperidin-3-yl]amino}-1H-pyrazolo[3,4-b]pyridin-4-yl)oxy]-N-(4-methylpyridin-2-yl)benzamide]"
> 10 µM,0.1 to 1 µM,< 0.1 µM,> 10 µM,"Cc1ccnc(NC(=O)c2ccc(Oc3ccnc4[nH]nc(N[C@@H]5CCCN(C(=O)C6(C)CC6)C5)c34)cc2)c1 [compound 120, 4-[(3-{[(3R)-1-(1-methylcyclopropanecarbonyl)piperidin-3-yl]amino}-1H-pyrazolo[3,4-b]pyridin-4-yl)oxy]-N-(4-methylpyridin-2-yl)benzamide]"
> 10 µM,0.1 to 1 µM,< 0.1 µM,1 to 10 µM,"CNC(=O)C(=O)N1CCC[C@@H](Nc2n[nH]c3nccc(Oc4ccc(C(=O)Nc5cc(C)ccn5)cc4)c23)C1 [compound 97, 4-[(3-{[(3R)-1-[(methylcarbamoyl)carbonyl]piperidin-3-yl]amino}-1H-pyrazolo[3,4-b]pyridin-4-yl)oxy]-N-(4-methylpyridin-2-yl)benzamide]"
1 to 10 µM,< 0.1 µM,0.1 to 1 µM,> 10 µM,"Cc1cc(NC(=O)c2cccc(Oc3ccnc4[nH]nc(N[C@H]5CCN(C(=O)C6CC6)C5)c34)c2)ccc1C(C)C [compound 125, 3-[(3-{[(3S)-1-cyclopropanecarbonylpyrrolidin-3-yl]amino}-1H-pyrazolo[3,4-b]pyridin-4-yl)oxy]-N-[3-methyl-4-(propan-2-yl)phenyl]benzamide]"
< 0.1 µM,< 0.1 µM,< 0.1 µM,0.1 to 1 µM,CN(C)CCCC(=O)N1CCC[C@@H](Nc2n[nH]c3nccc(Oc4ccc(C(=O)Nc5nc6ccccc6s5)cc4)c23)C1 [compound 172]
> 10 µM,0.1 to 1 µM,< 0.1 µM,> 10 µM,"Cc1ccnc(NC(=O)c2ccc(Oc3ccnc4[nH]nc(N[C@@H]5CCCN(C(=O)C6(C#N)CC6)C5)c34)cc2)c1 [compound 101, 4-[(3-{[(3R)-1-(1-cyanocyclopropanecarbonyl)piperidin-3-yl]amino}-1H-pyrazolo[3,4-b]pyridin-4-yl)oxy]-N-(4-methylpyridin-2-yl)benzamide]"
> 10 µM,> 10 µM,< 0.1 µM,> 10 µM,"CN(C)C(=O)N1CCC[C@@H](Nc2n[nH]c3nccc(Oc4ccc(C(=O)Nc5ccccn5)cc4)c23)C1 [compound 233, (3R)-N,N-dimethyl-3-[(4-{4-[(pyridin-2-yl)carbamoyl]phenoxy}-1H-pyrazolo[3,4-b]pyridin-3-yl)amino]piperidine-1-carboxamide]"
